According to patent US6221865A, “Inhibitors of protein isoprenyl transferases” (priority 1998, dated 2001):
Where a name gives a salt, the structure may show the parent alone. One block for each compound: values may come before it.

Target: T1, protein farnesyltransferase (Rattus norvegicus, UniProt Q02293+Q04631)
T1 construct: The enzyme is purified according to Reiss, Y., et al., Cell, 62: 81-88 (1990), utilizing steps one through three; from tissue; host or cells: rat brain
Experiment: Inhibition of farnesyltransferase (scintillation proximity assay, rat brain enzyme, biotin-K Ras B fragment substrate)
Format: biochemical
Settings: for % inhibition of farnesyltransferase at 1 × 10^-6 M / inhibition at 1 µM: 1 × 10^-6 M (Table 2); for % inhibition of farnesyltransferase at 1 × 10^-8 M: 1 × 10^-8 M (Table 4); for % inhibition of farnesyltransferase at 1 × 10^-5 M: 1 × 10^-5 M (Table 1); for inhibition at 1 µM: read-out: % inhibition of farnesyltransferase at 1 × 10^-6 M; for % inhibition of farnesyltransferase at 1 × 10^-7 M / inhibition at 0.1 µM: 1 × 10^-7 M (Table 3); for inhibition at 0.1 µM: read-out: % inhibition of farnesyltransferase at 1 × 10^-7 M
Summary of the method: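 Enzyme from rat brain, partly purified (steps one to three), assayed by SPA kit using 0.1 mM final biotin-K Ras B peptide as prenyl acceptor rather than biotin-lamin. Activity given as percent inhibition.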

T1 sequence (Q02293 whole entry, one chain of several): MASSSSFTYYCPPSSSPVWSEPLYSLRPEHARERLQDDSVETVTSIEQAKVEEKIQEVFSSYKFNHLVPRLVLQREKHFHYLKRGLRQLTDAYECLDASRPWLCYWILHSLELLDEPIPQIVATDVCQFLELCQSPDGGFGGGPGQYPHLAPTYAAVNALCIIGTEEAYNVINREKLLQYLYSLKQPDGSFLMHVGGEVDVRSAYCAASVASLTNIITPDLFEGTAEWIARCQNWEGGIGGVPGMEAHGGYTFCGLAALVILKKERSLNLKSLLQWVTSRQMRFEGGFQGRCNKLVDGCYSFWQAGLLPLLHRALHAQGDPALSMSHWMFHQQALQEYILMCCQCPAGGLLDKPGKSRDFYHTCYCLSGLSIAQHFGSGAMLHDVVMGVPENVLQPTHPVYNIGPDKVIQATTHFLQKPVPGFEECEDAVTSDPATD

Structure (SMILES): CCSC[C@H](CC1CCCCC1)NCc1ccc(C(=O)N[C@@H](CCSC)C(=O)OCOC(=O)C(C)(C)C)c(-c2ccccc2C)c1 [Example 764]
% inhibition of farnesyltransferase at 1 × 10^-6 M: 88%

Structure (SMILES): CSCC[C@H](NC(=O)c1ccc(NCCO)cc1-c1ccccc1)C(=O)O [Example 502]
% inhibition of farnesyltransferase at 1 × 10^-6 M: 24%

Structure (SMILES): CSCC[C@H](NC(=O)c1ccc(CNc2ccc(C)c(C)c2)cc1-c1ccccc1)C(=O)O [Example 704]
% inhibition of farnesyltransferase at 1 × 10^-5 M: 67%

Structure (SMILES): CSCC[C@H](NC(=O)c1ccc(OCCOc2ccccc2)cc1-c1ccccc1C)C(=O)O [Example 561]
% inhibition of farnesyltransferase at 1 × 10^-6 M: 91%

Structure (SMILES): CSCC[C@H](NC(=O)c1ccc(COCc2ccc(-c3ccc(C(C)C)cc3)o2)cc1-c1ccccc1C)C(=O)[O-].[Li+] [Example 820]
% inhibition of farnesyltransferase at 1 × 10^-8 M: 66%

Structure (SMILES): CCCCC(OCc1ccc(C(=O)N[C@@H](CCSC)C(=O)[O-])c(-c2ccccc2C)c1)c1ccc(-c2ccc(Cl)cc2)o1.[Li+] (stereo partly drawn) [Example 826]
% inhibition of farnesyltransferase at 1 × 10^-8 M: 92%

Structure (SMILES): CSCC[C@H](NC(=O)c1ccc(N2CC(=O)NNC2=O)cc1-c1ccccc1)C(=O)O [Example 224]
inhibition at 1 µM: 41%

Structure (SMILES): CSCC[C@H](NC(=O)c1ccc(COCCc2ccc(Cl)cc2)cc1-c1ccccc1C)C(=O)[O-].[Li+] [Example 590]
% inhibition of farnesyltransferase at 1 × 10^-7 M: 95%

Structure (SMILES): CSCC[C@H](NC(=O)c1ccc(CNc2nccs2)cc1-c1ccccc1)C(=O)O [Example 374]
% inhibition of farnesyltransferase at 1 × 10^-5 M: 61%

Structure (SMILES): CSCC[C@H](NC(=O)c1ccc(COCc2cc3ccccc3o2)cc1-c1ccccc1C)C(=O)[O-].[Li+] [Example 533]
% inhibition of farnesyltransferase at 1 × 10^-7 M: 91%

Structure (SMILES): CSCC[C@H](NC(=O)c1ccc(CN(C)CCc2ccccc2)cc1-c1ccccc1C)C(=O)O [Example 516]
% inhibition of farnesyltransferase at 1 × 10^-6 M: 95%

Structure (SMILES): CSCC[C@H](NC(=O)c1ccc(CN(Cc2ccccc2)Cc2ccco2)cc1-c1ccccc1C)C(=O)O [Example 504]
% inhibition of farnesyltransferase at 1 × 10^-6 M: 90%

Structure (SMILES): CSCC[C@H](NC(=O)c1ccc(CNCC(O)CO)cc1-c1ccccc1)C(=O)O (stereo partly drawn) [Example 632]
% inhibition of farnesyltransferase at 1 × 10^-6 M: 43%

Structure (SMILES): CSCC[C@H](NC(=O)c1ccc(CN[C@H](C)CC2CCCCC2)cc1-c1ccccc1C)C(=O)O [Example 613]
% inhibition of farnesyltransferase at 1 × 10^-6 M: 97%

Structure (SMILES): CSCC[C@H](NC(=O)c1ccc(NC(=O)c2cnccc2C(F)(F)F)cc1-c1ccccc1C)C(=O)O [Example 481]
% inhibition of farnesyltransferase at 1 × 10^-6 M: 95%

Structure (SMILES): CSCC[C@H](NC(=O)c1ccc(CNCCS)cc1-c1ccccc1)C(=O)O [Example 626]
% inhibition of farnesyltransferase at 1 × 10^-6 M: 61%

Structure (SMILES): CSCC[C@H](NC(=O)c1ccc(CN[C@@H](CO)C2CCCCC2)cc1-c1ccccc1C)C(=O)O [Example 604]
% inhibition of farnesyltransferase at 1 × 10^-7 M: 86%

Structure (SMILES): CSCC[C@H](NC(=O)c1ccc(COCc2ccc(-c3ccc(F)cc3)o2)cc1-c1ccc(F)cc1Cl)C(=O)[O-].[Li+] [Example 869]
% inhibition of farnesyltransferase at 1 × 10^-7 M: 92%

Structure (SMILES): CSCC[C@H](NC(=O)c1ccc(COCc2ccc(-c3ccc(C(C)=O)cc3)o2)cc1-c1ccccc1C)C(=O)[O-].[Li+] [Example 449]
% inhibition of farnesyltransferase at 1 × 10^-7 M: 91%

Structure (SMILES): CSCC[C@H](NC(=O)c1ccc(NC(=O)[C@@H]2CSCN2)cc1-c1ccccc1)C(=O)O [Example 165]
% inhibition of farnesyltransferase at 1 × 10^-6 M: 74%

Structure (SMILES): COc1ccccc1COCc1ccc(C(=O)N[C@@H](CCSC)C(=O)[O-])c(-c2ccccc2C)c1.[Li+] [Example 931]
% inhibition of farnesyltransferase at 1 × 10^-7 M: 98%

Structure (SMILES): CSCC[C@H](NC(=O)c1ccc(CNCCc2cccs2)cc1-c1ccccc1)C(=O)O [Example 369]
% inhibition of farnesyltransferase at 1 × 10^-5 M: 87%

Structure (SMILES): CSCC[C@H](NC(=O)c1ccc(COCc2ccc(CN(C)C)o2)cc1-c1ccccc1C)C(=O)O [Example 435]
% inhibition of farnesyltransferase at 1 × 10^-6 M: 96%

Structure (SMILES): CSCC[C@H](NC(=O)c1ccc(COCc2cccc3ccccc23)cc1-c1ccccc1C)C(=O)[O-].[Li+] [Example 584]
% inhibition of farnesyltransferase at 1 × 10^-7 M: 96%

Structure (SMILES): CSCC[C@H](NC(=O)c1ccc(CN(C(C)C)C2(CC3CCCCC3)CCCC2)cc1-c1ccccc1C)C(=O)O [Example 344]
inhibition at 1 µM: 95%

Structure (SMILES): CSCC[C@H](NC(=O)c1ccc(-c2ccc(-c3ccccc3)cc2)cc1-c1ccccc1C)C(=O)O [Example 788, N-[4-(4-phenylphenyl)-2-(2-methylphenyl)benzoyl]methionine lithium salt]
inhibition at 1 µM: 44%

Structure (SMILES): CSCC[C@H](NC(=O)c1ccc(COCc2ccc(Cl)cc2)cc1-c1ccccc1C)C(=O)[O-].[Li+] [Example 933]
% inhibition of farnesyltransferase at 1 × 10^-7 M: 91%

Structure (SMILES): CCCCC(CCCC)OCc1ccc(C(=O)N[C@@H](CCSC)C(=O)[O-])c(-c2ccccc2C)c1.[Li+] [Example 942]
% inhibition of farnesyltransferase at 1 × 10^-8 M: 58%

Now from value to compound:

% inhibition of farnesyltransferase at 1 × 10^-8 M: 95%
Structure (SMILES): CSCC[C@H](NC(=O)c1ccc(CN[C@H](CSC2CCCCC2)CC2CCCCC2)cc1-c1ccccc1C)C(=O)O [Example 766]

% inhibition of farnesyltransferase at 1 × 10^-8 M: 68%
Structure (SMILES): CSCC[C@H](NC(=O)c1ccc(CN(Cc2cncs2)S(=O)(=O)c2ccc(C)cc2)cc1-c1ccccc1C)C(=O)O [Example 877]

inhibition at 1 µM: 79%
Structure (SMILES): CSCC[C@H](NC(=O)c1ccc(S(=O)(=O)NCCC2CCCCC2)cc1-c1ccccc1C)C(=O)O [Example 772, lithium salt]

% inhibition of farnesyltransferase at 1 × 10^-7 M: 71%
Structure (SMILES): CCSC[C@H](CC1CCCCC1)N(Cc1ccc(C(=O)N[C@@H](CCSC)C(=O)O)c(-c2ccccc2C)c1)S(=O)(=O)c1ccccc1 [Example 951]

% inhibition of farnesyltransferase at 1 × 10^-8 M: 97%
Structure (SMILES): CSCC[C@H](NC(=O)c1ccc(CN[C@H](CSc2ccccc2C)CC2CCCCC2)cc1-c1ccccc1C)C(=O)O [Example 767]

inhibition at 0.1 µM: 92%
Structure (SMILES): CSCC[C@H](NC(=O)c1ccc(CCc2ccc(Oc3ccccc3Cl)cc2)cc1-c1ccccc1C)C(=O)O [Example 855, N-[4-(2-(4-(2-chlorophenoxy)phenyl)ethyl)-2-(2-methylphenyl)benzoyl]methionine]

inhibition at 0.1 µM: 65%
Structure (SMILES): CSCC[C@H](NC(=O)c1ccc(/C=C/c2ccc(Oc3cccc([N+](=O)[O-])c3)cc2)cc1-c1ccccc1C)C(=O)O [Example 861, N-[4-(2-(4-(3-nitrophenoxy)phenyl)ethen-1-yl)-2-(2-methylphenyl)benzoyl]methioziine]

% inhibition of farnesyltransferase at 1 × 10^-7 M: 91%
Structure (SMILES): CSCC[C@H](NC(=O)c1ccc(CN(Cc2ccc(Cl)cc2)c2ccccc2)cc1-c1ccccc1C)C(=O)O [Example 781]

% inhibition of farnesyltransferase at 1 × 10^-6 M: 90%
Structure (SMILES): CSCC[C@H](NC(=O)c1ccc(COC2CCN(Cc3ccccc3)CC2)cc1-c1ccccc1C)C(=O)O [Example 807]

% inhibition of farnesyltransferase at 1 × 10^-8 M: 95%
Structure (SMILES): CSCC[C@H](NC(=O)c1ccc(CN(Cc2ccccc2)c2cncnc2)cc1-c1ccccc1C)C(=O)O [Example 836]

% inhibition of farnesyltransferase at 1 × 10^-8 M: 79%
Structure (SMILES): CCCCC(Cc1ccccc1Cl)OCc1ccc(C(=O)N[C@@H](CCSC)C(=O)O)c(-c2ccccc2C)c1 (stereo partly drawn) [Example 943]

inhibition at 0.1 µM: 97%
Structure (SMILES): CSCC[C@H](NC(=O)c1ccc(/C=C/c2ccc(Oc3ccccc3[N+](=O)[O-])cc2)cc1-c1ccccc1C)C(=O)O [Example 856, N-[4-(2-(4-(2-nitrophenoxy)phenyl)ethen-1-yl)-2-(2-methylphenyl)benzoyl]methionine]

inhibition at 1 µM: 83%
Structure (SMILES): CSCC[C@H](NC(=O)c1ccc(S(=O)(=O)NCCCn2ccnc2)cc1-c1ccccc1C)C(=O)O [Example 777, lithium salt]

% inhibition of farnesyltransferase at 1 × 10^-8 M: 96%
Structure (SMILES): CCCCS(=O)(=O)N(CCC1CCCCC1)Cc1ccc(C(=O)N[C@@H](CCSC)C(=O)O)c(-c2ccccc2C)c1 [Example 916]
